Patent US12083124B2 (Incyte Corporation, priority 2019, dated 2024)
Like-named read-outs stand apart in the source and are kept apart here.

Legend:
[1] = target: wild-type un-phosphorylated FGFR1 (Homo sapiens, UniProt P11362); assay: FGFR Enzymatic Assay (FRET peptide phosphorylation), FGFR1; conditions: pre-incubated for 4 hours
[2] = target: wild-type un-phosphorylated FGFR2 (Homo sapiens, UniProt P21802); assay: FGFR Enzymatic Assay (FRET peptide phosphorylation), FGFR2
[3] = target: wild-type un-phosphorylated FGFR4 (Homo sapiens, UniProt P22455); assay: FGFR Enzymatic Assay (FRET peptide phosphorylation), FGFR4
Experimental: The inhibitor potency of the exemplified compounds was determined in an enzyme discontinuous assay that measures peptide phosphorylation using FRET measurements to detect product formation. Inhibitors were serially diluted in DMSO and a volume of 0.2 μL was transferred to the wells of a 384-well plate. […] Appropriate controls (enzyme blank and enzyme with no inhibitor) were included on the plate. […] The 10 μL/well reaction concentration of the peptide substrate was 500 nM whereas the ATP concentration was maintained near or below the ATP Km. The ATP Km values were pre-determined in a separate series of experiments. The reaction plate was incubated at 25° C. for 1 hr and the reactions were ended with the addition of 5 μL/well of quench solution (50 mM Tris, 150 mM NaCl, 0.5 mg/mL BSA, pH 7.8; 45 mM EDTA, 600 nM staurosporin, with Perkin Elmer Lance Reagents at 3.75 nM Eu-antibody PY20 and 180 nM APC-Streptavidin). The plate was allowed to equilibrate for ˜10 minutes at ambient temperature before scanning on a PheraStar plate reader (BMG Labtech) instrument.
Either GraphPad prism or XLfit was used to analyze the data. The IC50 values were derived by fitting the data to a four parameter logistic equation producing a sigmoidal dose-response curve with a variable Hill coefficient. Prism equation: Y=Bottom+(Top-Bottom)/(1+10^((Log IC50-X)*Hill slope)); XLfit equation: Y=(A+((B−A)/(1+((X/C)^D)))) where X is the logarithm of inhibitor concentration and Y is the response.
GraphPad prism3 was used to analyze the data. The IC50 values were derived by fitting the data to the equation for a sigmoidal dose-response with a variable slope. Y=Bottom+(Top-Bottom)/(1+10^((Log IC50-X)*Hill Slope)) where X is the logarithm of concentration and Y is the response.
The data in Table 1 was measured in wild-type un-phosphorylated FGFR1, FGFR2, FGFR3, and FGFR4 proteins.

[4] = target: wild-type un-phosphorylated FGFR3 (Homo sapiens, UniProt P22607); assay: FGFR Enzymatic Assay (FRET peptide phosphorylation), FGFR3
[5] = read-out: FGFR1, wild-type un-phosphorylated FGFR1
[6] = read-out: FGFR4, wild-type un-phosphorylated FGFR4, pre-incubated for 4 hours
[7] = FGFR1, wild-type un-phosphorylated FGFR1
[8] = read-out: FGFR2, wild-type un-phosphorylated FGFR2, pre-incubated for 4 hours

Sequence of wild-type un-phosphorylated FGFR1 (P11362 22-822): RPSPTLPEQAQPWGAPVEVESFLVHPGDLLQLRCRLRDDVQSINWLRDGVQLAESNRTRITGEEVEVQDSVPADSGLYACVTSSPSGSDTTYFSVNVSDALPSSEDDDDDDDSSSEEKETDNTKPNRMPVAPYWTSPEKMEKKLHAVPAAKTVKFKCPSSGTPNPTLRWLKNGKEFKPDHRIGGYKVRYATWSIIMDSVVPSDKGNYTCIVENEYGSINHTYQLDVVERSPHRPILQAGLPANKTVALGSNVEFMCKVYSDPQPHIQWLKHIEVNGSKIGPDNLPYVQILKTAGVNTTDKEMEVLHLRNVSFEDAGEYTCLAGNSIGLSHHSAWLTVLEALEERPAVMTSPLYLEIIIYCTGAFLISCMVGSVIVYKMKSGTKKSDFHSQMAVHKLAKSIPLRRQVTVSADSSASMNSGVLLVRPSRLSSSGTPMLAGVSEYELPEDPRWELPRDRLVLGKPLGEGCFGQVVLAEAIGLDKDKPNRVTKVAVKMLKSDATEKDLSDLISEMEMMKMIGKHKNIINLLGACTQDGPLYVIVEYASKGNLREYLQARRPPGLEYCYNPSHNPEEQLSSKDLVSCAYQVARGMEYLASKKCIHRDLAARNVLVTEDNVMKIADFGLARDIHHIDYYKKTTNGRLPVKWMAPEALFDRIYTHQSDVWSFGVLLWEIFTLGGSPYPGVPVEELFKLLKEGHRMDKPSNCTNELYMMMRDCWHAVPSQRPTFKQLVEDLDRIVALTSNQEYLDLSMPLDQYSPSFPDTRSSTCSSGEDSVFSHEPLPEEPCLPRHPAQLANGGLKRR
Sequence of wild-type un-phosphorylated FGFR3 (P22607 23-806): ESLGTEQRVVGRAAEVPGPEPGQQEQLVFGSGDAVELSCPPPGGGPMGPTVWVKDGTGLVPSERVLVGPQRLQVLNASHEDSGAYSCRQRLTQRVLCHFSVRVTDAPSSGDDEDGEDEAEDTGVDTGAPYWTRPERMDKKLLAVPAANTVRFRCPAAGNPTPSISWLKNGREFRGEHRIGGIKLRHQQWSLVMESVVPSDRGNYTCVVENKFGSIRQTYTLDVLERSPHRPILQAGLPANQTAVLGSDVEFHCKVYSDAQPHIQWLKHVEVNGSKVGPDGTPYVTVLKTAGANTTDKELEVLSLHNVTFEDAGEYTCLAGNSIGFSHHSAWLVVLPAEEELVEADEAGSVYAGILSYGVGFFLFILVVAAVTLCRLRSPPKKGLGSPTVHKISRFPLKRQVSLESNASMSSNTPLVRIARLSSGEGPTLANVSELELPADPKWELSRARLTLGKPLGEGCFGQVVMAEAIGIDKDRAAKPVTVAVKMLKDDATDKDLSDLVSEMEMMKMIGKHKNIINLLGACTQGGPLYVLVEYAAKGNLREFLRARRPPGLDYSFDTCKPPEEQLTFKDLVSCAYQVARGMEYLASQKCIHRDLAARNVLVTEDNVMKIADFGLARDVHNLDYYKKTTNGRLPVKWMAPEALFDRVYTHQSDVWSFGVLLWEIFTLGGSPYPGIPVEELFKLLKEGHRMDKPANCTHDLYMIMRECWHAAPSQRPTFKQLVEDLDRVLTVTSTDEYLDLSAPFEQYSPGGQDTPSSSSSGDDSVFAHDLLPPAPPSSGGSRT
Sequence of wild-type un-phosphorylated FGFR2 (P21802 22-821): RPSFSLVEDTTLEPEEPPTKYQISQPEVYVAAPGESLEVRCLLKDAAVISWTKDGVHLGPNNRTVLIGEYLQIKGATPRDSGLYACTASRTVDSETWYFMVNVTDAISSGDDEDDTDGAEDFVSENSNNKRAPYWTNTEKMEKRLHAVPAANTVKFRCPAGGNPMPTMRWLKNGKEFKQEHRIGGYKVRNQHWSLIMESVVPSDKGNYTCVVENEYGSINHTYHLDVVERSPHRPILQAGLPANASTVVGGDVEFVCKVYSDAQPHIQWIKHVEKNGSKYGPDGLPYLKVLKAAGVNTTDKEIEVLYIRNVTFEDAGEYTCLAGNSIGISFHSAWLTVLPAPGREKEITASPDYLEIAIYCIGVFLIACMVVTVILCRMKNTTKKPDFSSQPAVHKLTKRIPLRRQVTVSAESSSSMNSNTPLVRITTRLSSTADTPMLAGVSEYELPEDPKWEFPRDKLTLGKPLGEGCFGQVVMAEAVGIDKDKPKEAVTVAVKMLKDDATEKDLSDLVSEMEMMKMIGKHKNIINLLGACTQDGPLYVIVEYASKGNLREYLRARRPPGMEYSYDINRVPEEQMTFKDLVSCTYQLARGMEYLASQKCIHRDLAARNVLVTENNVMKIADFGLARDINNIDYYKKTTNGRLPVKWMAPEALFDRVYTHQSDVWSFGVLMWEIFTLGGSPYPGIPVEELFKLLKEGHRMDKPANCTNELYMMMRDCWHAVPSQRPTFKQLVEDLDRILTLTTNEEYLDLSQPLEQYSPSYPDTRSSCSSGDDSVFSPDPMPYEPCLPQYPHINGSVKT
Sequence of wild-type un-phosphorylated FGFR4 (P22455 22-802): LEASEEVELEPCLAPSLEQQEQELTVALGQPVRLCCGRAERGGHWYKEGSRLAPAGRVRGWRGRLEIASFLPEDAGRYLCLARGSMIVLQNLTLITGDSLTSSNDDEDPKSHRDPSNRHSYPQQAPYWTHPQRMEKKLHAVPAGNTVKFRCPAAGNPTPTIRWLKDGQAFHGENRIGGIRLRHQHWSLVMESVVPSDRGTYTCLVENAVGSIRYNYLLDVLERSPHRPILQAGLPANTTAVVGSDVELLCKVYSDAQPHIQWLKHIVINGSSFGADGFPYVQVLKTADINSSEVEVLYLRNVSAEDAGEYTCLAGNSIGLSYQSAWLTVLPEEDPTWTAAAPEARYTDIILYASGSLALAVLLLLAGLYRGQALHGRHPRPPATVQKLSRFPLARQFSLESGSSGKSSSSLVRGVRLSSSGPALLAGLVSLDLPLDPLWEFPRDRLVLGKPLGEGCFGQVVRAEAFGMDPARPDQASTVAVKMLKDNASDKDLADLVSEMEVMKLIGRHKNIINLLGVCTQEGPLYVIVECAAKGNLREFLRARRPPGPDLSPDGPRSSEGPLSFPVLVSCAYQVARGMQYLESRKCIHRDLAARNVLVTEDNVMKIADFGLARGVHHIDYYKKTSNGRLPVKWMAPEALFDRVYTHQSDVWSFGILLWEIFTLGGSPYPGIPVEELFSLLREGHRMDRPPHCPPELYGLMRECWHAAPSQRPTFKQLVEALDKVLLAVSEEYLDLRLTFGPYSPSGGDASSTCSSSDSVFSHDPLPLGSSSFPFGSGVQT

SMILES	IC50 [1, 5] [nM]	IC50 [2] [nM]	IC50 [3, 6] [nM]	IC50 [4] [nM]	IC50 [1, 7] [nM]	IC50 [3] [nM]	IC50 [2, 8] [nM]
COc1cc2[nH]nc(-c3cnn(C4CN(C(=O)[C@H]5C[C@H](O)C5)C4)c3)c2nc1-c1cccc2c1CCC2 [Example 125, (3-(4-(5-(2,3-Dihydro-1H-inden-4-yl)-6-methoxy-1H-pyrazolo[4,3-b]pyridin-3-yl)-1H-pyrazol-1-yl)azetidin-1-yl)((trans)-3-hydroxycyclobutyl)methanone]	6 to 40	< 6	6 to 40	< 6			
COc1cc2[nH]nc(-c3ccc(N4CCN(C)CC4)nc3)c2nc1-c1cccc(C)c1C [Example 41, 5-(2,3-Dimethylphenyl)-6-methoxy-3-(6-(4-methylpiperazin-1-yl)pyridin-3-yl)-1H-pyrazolo[4,3-b]pyridine]		< 6		< 6	40 to 100	40 to 100	
COc1cc2[nH]nc(-c3ccc(N4CCN5C[C@@H](O)C[C@@H]5C4)nc3)c2nc1-c1cccc(C)c1C [Example 85, (7S,8aR)-2-(5-(5-(2,3-Dimethylphenyl)-6-methoxy-1H-pyrazolo[4,3-b]pyridin-3-yl)pyridin-2-yl)octahydropyrrolo[1,2-a]pyrazin-7-ol]		< 6		< 6	40 to 100	40 to 100	
COc1cc2[nH]nc(-c3cnn(CC#N)c3)c2nc1-c1cccc2c1CCC2C#N (single isomer, unassigned) [Example 185, 4-(3-(1-(Cyanomethyl)-1H-pyrazol-4-yl)-6-methoxy-1H-pyrazolo[4,3-b]pyridin-5-yl)-2,3-dihydro-1H-indene-1-carbonitrile]		< 6	6 to 40	< 6	40 to 100		
COc1cc2[nH]nc(-c3cnn(C4CN(C(=O)[C@@H]5CCCO5)C4)c3)c2nc1-c1cccc2c1CCC2 [Example 130, (S)-(3-(4-(5-(2,3-Dihydro-1H-inden-4-yl)-6-methoxy-1H-pyrazolo[4,3-b]pyridin-3-yl)-1H-pyrazol-1-yl)azetidin-1-yl)(tetrahydrofuran-2-yl)methanone]	6 to 40	< 6	6 to 40	< 6			
COc1cc2[nH]nc(-c3ccc(N4CCN(C)CC4)nc3)c2nc1-c1cccc2c1CCC2C#N (stereo not drawn) [Example 110, 4-(6-Methoxy-3-(6-(4-methylpiperazin-1-yl)pyridin-3-yl)-1H-pyrazolo[4,3-b]pyridin-5-yl)-2,3-dihydro-1H-indene-1-carbonitrile]	6 to 40	< 6	6 to 40	< 6			
Cn1cc(-c2n[nH]c3cc(CO)c(-c4cccc5c4CCC5)nc23)cn1 [Example 36, (5-(2,3-Dihydro-1H-inden-4-yl)-3-(1-methyl-1H-pyrazol-4-yl)-1H-pyrazolo[4,3-b]pyridin-6-yl)methanol]				< 6	40 to 100	> 100	6 to 40
COc1cc2[nH]nc(-c3ccc(C45CC4CN(C(=O)CO)C5)nc3)c2nc1-c1cccc2c1CCC2 (stereo not drawn) [Example 191A, 1-(1-(5-(5-(2,3-Dihydro-1H-inden-4-yl)-6-methoxy-1H-pyrazolo[4,3-b]pyridin-3-yl)pyridin-2-yl)-3-azabicyclo[3.1.0]hexan-3-yl)-2-hydroxyethan-1-one]	6 to 40	< 6	6 to 40	< 6			
COc1cc2[nH]nc(-c3ccc(OC4CCOCC4)nc3)c2nc1-c1cccc2c1CC(O)C2 (stereo not drawn) [Example 96, 4-(6-Methoxy-3-(6-((tetrahydro-2H-pyran-4-yl)oxy)pyridin-3-yl)-1H-pyrazolo[4,3-b]pyridin-5-yl)-2,3-dihydro-1H-inden-2-ol]				< 6	40 to 100	> 100	6 to 40
COc1cc2[nH]nc(-c3cnn(C)c3)c2nc1-c1cccc2c1CC(O)C2 (single isomer, unassigned) [Example 10, 4-(6-Methoxy-3-(1-methyl-1H-pyrazol-4-yl)-1H-pyrazolo[4,3-b]pyridin-5-yl)-2,3-dihydro-1H-inden-2-ol]				< 6	40 to 100	> 100	6 to 40
COc1cc2[nH]nc(-c3ccc(C4CCN(C(C)=O)CC4)nc3)c2nc1-c1cccc2c1CCC2 [Example 99, 1-(4-(5-(5-(2,3-Dihydro-1H-inden-4-yl)-6-methoxy-1H-pyrazolo[4,3-b]pyridin-3-yl)pyridin-2-yl)piperidin-1-yl)ethan-1-one]	6 to 40	< 6	6 to 40	< 6			
COc1cc2[nH]nc(-c3cnn(C4CN(C(=O)[C@@H]5CCN5C(C)C)C4)c3)c2nc1-c1cccc2c1CCC2 [Example 142, (S)-(3-(4-(5-(2,3-Dihydro-1H-inden-4-yl)-6-methoxy-1H-pyrazolo[4,3-b]pyridin-3-yl)-1H-pyrazol-1-yl)azetidin-1-yl)(1-isopropylazetidin-2-yl)methanone]	6 to 40	< 6		< 6		40 to 100	
CNc1cc2[nH]nc(-c3cnn(C)c3)c2nc1-c1cccc(C)c1C [Example 34, 5-(2,3-Dimethylphenyl)-N-methyl-3-(1-methyl-1H-pyrazol-4-yl)-1H-pyrazolo[4,3-b]pyridin-6-amine]		< 6		< 6	40 to 100	> 100	
COc1cc2[nH]nc(-c3ccc(N4CC(N(C)C(=O)CO)C4)nc3)c2nc1-c1cccc(C)c1C [Example 98, N-(1-(5-(5-(2,3-Dimethylphenyl)-6-methoxy-1H-pyrazolo[4,3-b]pyridin-3-yl)pyridin-2-yl)azetidin-3-yl)-2-hydroxy-N-methylacetamide]		< 6		< 6	40 to 100	> 100	
COc1cc2[nH]nc(-c3cnn(C4CC(C#N)C4)c3)c2nc1-c1cccc2c1CCC2 (stereo not drawn) [Example 16, 3-(4-(5-(2,3-Dihydro-1H-inden-4-yl)-6-methoxy-1H-pyrazolo[4,3-b]pyridin-3-yl)-1H-pyrazol-1-yl)cyclobutanecarbonitrile]		< 6		< 6	40 to 100	> 100	
COc1cc2[nH]nc(-c3cnn(C4CN(C(=O)[C@H]5C[C@@](C)(O)C5)C4)c3)c2nc1-c1cccc2c1CCC2 [Example 136, (3-(4-(5-(2,3-Dihydro-1H-inden-4-yl)-6-methoxy-1H-pyrazolo[4,3-b]pyridin-3-yl)-1H-pyrazol-1-yl)azetidin-1-yl)((1s,3s)-3-hydroxy-3-methylcyclobutyl)methanone]	6 to 40	< 6	6 to 40	< 6			
COc1cc2[nH]nc(-c3ccc(C4(C#N)CCN(CCO)CC4)nc3)c2nc1-c1cccc2c1CCC2 [Example 164, 4-(5-(5-(2,3-Dihydro-1H-inden-4-yl)-6-methoxy-1H-pyrazolo[4,3-b]pyridin-3-yl)pyridin-2-yl)-1-(2-hydroxyethyl)piperidine-4-carbonitrile]		< 6		< 6	40 to 100	40 to 100	
COc1cc2[nH]nc(-c3cnn(C4CN(C(=O)[C@H](C)O)C4)c3)c2nc1-c1cccc2c1CCC2 [Example 124, (S)-1-(3-(4-(5-(2,3-Dihydro-1H-inden-4-yl)-6-methoxy-1H-pyrazolo[4,3-b]pyridin-3-yl)-1H-pyrazol-1-yl)azetidin-1-yl)-2-hydroxypropan-1-one]	6 to 40	< 6		< 6		40 to 100	
